What follows are compounds tested on HCT116 cells (assay: In vitro cytotoxicity measured by the cell colony formation assay). Settings: HCT116 colony formation; 72 h drug incubation, colonies counted after 7 days; Example 10, C-10 ester/C-7 hydroxy taxanes; read-out: IN VITRO ID 50 (nm) HCT116.
Assay type: cell-based
Protocol: (§1) Four hundred cells (HCT116) were plated in 60 mm Petri dishes containing 2.7 mL of medium (modified McCoy's 5a medium containing 10% fetal bovine serum and 100 units/mL penicillin and 100 µg/mL streptomycin). The cells were incubated in a CO2 incubator at 37° C. for 5 h for attachment to the bottom of Petri dishes. The compounds identified in Example 2 were made up fresh in medium at ten times the final concentration, and then 0.3 mL of this stock solution was added to the 2.7 mL of medium in the dish. The cells were then incubated with drugs for 72 h at 37° C. At the end of incubation the drug-containing media were decanted, the dishes were rinsed with 4 mL of Hank's Balance Salt Solution (HBSS), 5 mL of fresh medium was added, and the dishes were returned to the incubator for colony formation. The cell colonies were counted using a colony counter after incubation for 7 days.
as §1, with “Example 7” for “Example 2”
as §1, with “Example 22” for “Example 2”
as §1, with “Example 27” for “Example 2”
Four hundred cells (HCT116) were plated in 60 mm Petri dishes containing 2.7 mL of medium (modified McCoy's 5a medium containing 10% fetal bovine serum and 100 units/mL penicillin and 100 µg/mL streptomycin). The cells were incubated in a CO2 incubator at 37° C. for 5 h for attachment to the bottom of Petri dishes. […]

Compound | IC50 [nM]
CCC(=O)O[C@H]1C(=O)[C@@]2(C)C([C@H](OC(=O)c3ccccc3)[C@]3(O)C[C@H](OC(=O)[C@H](O)[C@H](C=C(C)C)NC(=O)OC(C)(C)C)C(C)=C1C3(C)C)[C@]1(OC(C)=O)CO[C@@H]1C[C@@H]2O (some centres unmarked) [Compound 0499] | < 1
CCC(=O)O[C@H]1C(=O)[C@@]2(C)C([C@H](OC(=O)c3ccccc3)[C@]3(O)C[C@H](OC(=O)[C@H](O)[C@@H](NC(=O)OC(C)(C)C)c4ccccn4)C(C)=C1C3(C)C)[C@]1(OC(C)=O)CO[C@@H]1C[C@@H]2O (some centres unmarked) [Compound 0503] | < 1
CCC(=O)O[C@H]1C(=O)[C@@]2(C)C([C@H](OC(=O)c3ccccc3)[C@]3(O)C[C@H](OC(=O)[C@H](O)[C@@H](NC(=O)OC(C)(C)C)c4cccnc4)C(C)=C1C3(C)C)[C@]1(OC(C)=O)CO[C@@H]1C[C@@H]2O (some centres unmarked) [Compound 0517] | < 10
CCC(=O)O[C@H]1C(=O)[C@@]2(C)C([C@H](OC(=O)c3ccccc3)[C@]3(O)C[C@H](OC(=O)[C@H](O)[C@@H](NC(=O)OC(C)(C)C)c4ccncc4)C(C)=C1C3(C)C)[C@]1(OC(C)=O)CO[C@@H]1C[C@@H]2O (some centres unmarked) [Compound 0521] | < 1
CCC(=O)O[C@H]1C(=O)[C@@]2(C)C([C@H](OC(=O)c3ccccc3)[C@]3(O)C[C@H](OC(=O)[C@H](O)[C@@H](NC(=O)OC(C)(C)C)c4ccco4)C(C)=C1C3(C)C)[C@]1(OC(C)=O)CO[C@@H]1C[C@@H]2O (some centres unmarked) [Compound 0536] | < 1
CCC(=O)O[C@H]1C(=O)[C@@]2(C)C([C@H](OC(=O)c3ccccc3)[C@]3(O)C[C@H](OC(=O)[C@H](O)[C@@H](NC(=O)OC(C)(C)C)c4ccoc4)C(C)=C1C3(C)C)[C@]1(OC(C)=O)CO[C@@H]1C[C@@H]2O (some centres unmarked) [Compound 0549] | < 10
CCC(=O)O[C@H]1C(=O)[C@@]2(C)C([C@H](OC(=O)c3ccccc3)[C@]3(O)C[C@H](OC(=O)[C@H](O)[C@@H](NC(=O)OC(C)(C)C)c4cccs4)C(C)=C1C3(C)C)[C@]1(OC(C)=O)CO[C@@H]1C[C@@H]2O (some centres unmarked) [Compound 0550] | < 10
CCC(=O)O[C@H]1C(=O)[C@@]2(C)C([C@H](OC(=O)c3ccccc3)[C@]3(O)C[C@H](OC(=O)[C@H](O)[C@@H](NC(=O)OC(C)(C)C)c4ccsc4)C(C)=C1C3(C)C)[C@]1(OC(C)=O)CO[C@@H]1C[C@@H]2O (some centres unmarked) [Compound 0562] | < 1
CCC(=O)O[C@H]1C(=O)[C@@]2(C)C([C@H](OC(=O)c3ccccc3)[C@]3(O)C[C@H](OC(=O)[C@H](O)[C@@H](NC(=O)OC(C)(C)C)C4CC4)C(C)=C1C3(C)C)[C@]1(OC(C)=O)CO[C@@H]1C[C@@H]2O (some centres unmarked) [Compound 0578] | < 1
CCC(=O)O[C@H]1C(=O)[C@@]2(C)C([C@H](OC(=O)c3ccccc3)[C@]3(O)C[C@H](OC(=O)[C@H](O)[C@@H](NC(=O)OC(C)(C)C)C(C)C)C(C)=C1C3(C)C)[C@]1(OC(C)=O)CO[C@@H]1C[C@@H]2O (some centres unmarked) [Compound 0583] | < 10
CCC(=O)O[C@H]1C(=O)[C@@]2(C)C([C@H](OC(=O)c3ccccc3)[C@]3(O)C[C@H](OC(=O)[C@H](O)[C@@H](NC(=O)OC(C)(C)C)C4CCC4)C(C)=C1C3(C)C)[C@]1(OC(C)=O)CO[C@@H]1C[C@@H]2O (some centres unmarked) [Compound 0596] | < 10
CCC(=O)O[C@H]1C(=O)[C@@]2(C)C([C@H](OC(=O)c3ccccc3)[C@]3(O)C[C@H](OC(=O)[C@H](O)[C@@H](NC(=O)OC(C)(C)C)c4ccc([N+](=O)[O-])cc4)C(C)=C1C3(C)C)[C@]1(OC(C)=O)CO[C@@H]1C[C@@H]2O (some centres unmarked) [Compound 0602] | < 1
CCC(=O)O[C@H]1C(=O)[C@@]2(C)C([C@H](OC(=O)c3ccccc3)[C@]3(O)C[C@H](OC(=O)[C@H](O)[C@@H](NC(=O)OC(C)(C)C)c4ccccc4)C(C)=C1C3(C)C)[C@]1(OC(C)=O)CO[C@@H]1C[C@@H]2O (some centres unmarked) [Compound 0611] | < 10
CCC(=O)O[C@H]1C(=O)[C@@]2(C)C([C@H](OC(=O)c3ccccc3)[C@]3(O)C[C@H](OC(=O)[C@H](O)[C@H](C=C(C)C)NC(=O)c4ccccc4)C(C)=C1C3(C)C)[C@]1(OC(C)=O)CO[C@@H]1C[C@@H]2O (some centres unmarked) [Compound 0625] | < 1
CCC(=O)O[C@H]1C(=O)[C@@]2(C)C([C@H](OC(=O)c3ccccc3)[C@]3(O)C[C@H](OC(=O)[C@H](O)[C@@H](NC(=O)c4ccccc4)c4ccccn4)C(C)=C1C3(C)C)[C@]1(OC(C)=O)CO[C@@H]1C[C@@H]2O (some centres unmarked) [Compound 0634] | < 10
CCC(=O)O[C@H]1C(=O)[C@@]2(C)C([C@H](OC(=O)c3ccccc3)[C@]3(O)C[C@H](OC(=O)[C@H](O)[C@@H](NC(=O)c4ccccc4)c4cccnc4)C(C)=C1C3(C)C)[C@]1(OC(C)=O)CO[C@@H]1C[C@@H]2O (some centres unmarked) [Compound 0647] | 12
CCC(=O)O[C@H]1C(=O)[C@@]2(C)C([C@H](OC(=O)c3ccccc3)[C@]3(O)C[C@H](OC(=O)[C@H](O)[C@@H](NC(=O)c4ccccc4)c4ccncc4)C(C)=C1C3(C)C)[C@]1(OC(C)=O)CO[C@@H]1C[C@@H]2O (some centres unmarked) [Compound 0659] | < 1
CCC(=O)O[C@H]1C(=O)[C@@]2(C)C([C@H](OC(=O)c3ccccc3)[C@]3(O)C[C@H](OC(=O)[C@H](O)[C@@H](NC(=O)c4ccccc4)c4ccco4)C(C)=C1C3(C)C)[C@]1(OC(C)=O)CO[C@@H]1C[C@@H]2O (some centres unmarked) [Compound 0663] | < 1
CCC(=O)O[C@H]1C(=O)[C@@]2(C)C([C@H](OC(=O)c3ccccc3)[C@]3(O)C[C@H](OC(=O)[C@H](O)[C@@H](NC(=O)c4ccccc4)c4ccoc4)C(C)=C1C3(C)C)[C@]1(OC(C)=O)CO[C@@H]1C[C@@H]2O (some centres unmarked) [Compound 0670] | < 1
CCC(=O)O[C@H]1C(=O)[C@@]2(C)C([C@H](OC(=O)c3ccccc3)[C@]3(O)C[C@H](OC(=O)[C@H](O)[C@@H](NC(=O)c4ccccc4)c4ccsc4)C(C)=C1C3(C)C)[C@]1(OC(C)=O)CO[C@@H]1C[C@@H]2O (some centres unmarked) [Compound 0691] | < 1
CCC(=O)O[C@H]1C(=O)[C@@]2(C)C([C@H](OC(=O)c3ccccc3)[C@]3(O)C[C@H](OC(=O)[C@H](O)[C@@H](NC(=O)c4ccccc4)C4CC4)C(C)=C1C3(C)C)[C@]1(OC(C)=O)CO[C@@H]1C[C@@H]2O (some centres unmarked) [Compound 0706] | < 1
CCC(=O)O[C@H]1C(=O)[C@@]2(C)C([C@H](OC(=O)c3ccccc3)[C@]3(O)C[C@H](OC(=O)[C@H](O)[C@@H](NC(=O)c4ccccc4)C(C)C)C(C)=C1C3(C)C)[C@]1(OC(C)=O)CO[C@@H]1C[C@@H]2O (some centres unmarked) [Compound 0719] | < 10
CCC(=O)O[C@H]1C(=O)[C@@]2(C)C([C@H](OC(=O)c3ccccc3)[C@]3(O)C[C@H](OC(=O)[C@H](O)[C@@H](NC(=O)c4ccccc4)C4CCC4)C(C)=C1C3(C)C)[C@]1(OC(C)=O)CO[C@@H]1C[C@@H]2O (some centres unmarked) [Compound 0720] | < 10
CCC(=O)O[C@H]1C(=O)[C@@]2(C)C([C@H](OC(=O)c3ccccc3)[C@]3(O)C[C@H](OC(=O)[C@H](O)[C@@H](NC(=O)c4ccccc4)c4ccc([N+](=O)[O-])cc4)C(C)=C1C3(C)C)[C@]1(OC(C)=O)CO[C@@H]1C[C@@H]2O (some centres unmarked) [Compound 0732] | < 10
CCC(=O)O[C@H]1C(=O)[C@@]2(C)C([C@H](OC(=O)c3ccccc3)[C@]3(O)C[C@H](OC(=O)[C@H](O)[C@@H](NC(=O)c4ccccc4)c4ccccc4)C(C)=C1C3(C)C)[C@]1(OC(C)=O)CO[C@@H]1C[C@@H]2O (some centres unmarked) [Compound 0748] | < 10
CC(=O)O[C@@]12CO[C@@H]1C[C@H](O)[C@@]1(C)C(=O)[C@H](OC(=O)C3CC3)C3=C(C)[C@@H](OC(=O)[C@H](O)[C@H](C=C(C)C)NC(=O)OC(C)(C)C)C[C@@](O)([C@@H](OC(=O)c4ccccc4)C12)C3(C)C (some centres unmarked) [Compound 0838] | < 1
